From ChEMBL document CHEMBL3085716, “Hytramycins V and I, anti-Mycobacterium tuberculosis hexapeptides from a Streptomyces hygroscopicus strain” (J Nat Prod, 2013)
In brackets after ≈: the same amount, converted by molar mass.

What was measured:
[1] = test system: Streptococcus pneumoniae; test: Antibacterial activity against Streptococcus pneumoniae ATCC 49619 after 20 hrs; format: functional; settings: ATCC 49619, 20 h
[2] = test system: Enterococcus faecalis; test: Antibacterial activity against Enterococcus faecalis ATCC 29212 after 16 hrs; format: functional; settings: ATCC 29212, 16 h
[3] = test system: Mycobacterium tuberculosis; test: Antimycobacterial activity against Mycobacterium tuberculosis H37Rv under normoxic condition after 7 days by MABA assay in presence of 10% fetal bovine serum; format: functional; settings: 168 h
[4] = test system: Mycobacterium tuberculosis; test: Antimycobacterial activity against Mycobacterium tuberculosis H37Rv under normoxic condition after 7 days by MABA assay in presence of 4% bovine serum albumin; format: functional; settings: 168 h
[5] = test system: Mycolicibacterium smegmatis; test: Antimycobacterial activity against Mycobacterium smegmatis ATCC 700084 under normoxic condition after 72 hrs by MABA assay; format: functional; settings: ATCC 700084, 72 h
[6] = test system: Mycobacterium tuberculosis; test: Antimycobacterial activity against Mycobacterium tuberculosis clinical isolate X005319 under normoxic condition after 7 days by MABA assay; format: functional; settings: clinical isolate X005319, 168 h
[7] = test system: Mycobacterium tuberculosis; test: Antimycobacterial activity against Mycobacterium tuberculosis clinical isolate X005282 under normoxic condition after 7 days by MABA assay; format: functional; settings: clinical isolate X005282, 168 h
[8] = test system: Mycobacterium tuberculosis; test: Antimycobacterial activity against Mycobacterium tuberculosis clinical isolate X004439 under normoxic condition after 7 days by MABA assay; format: functional; settings: clinical isolate X004439, 168 h
[9] = test system: Mycobacterium tuberculosis; test: Antimycobacterial activity against Mycobacterium tuberculosis clinical isolate X004244 under normoxic condition after 7 days by MABA assay; format: functional; settings: clinical isolate X004244, 168 h
[10] = test system: Mycobacterium tuberculosis; test: Antimycobacterial activity against Mycobacterium tuberculosis clinical isolate X003899 under normoxic condition after 7 days by MABA assay; format: functional; settings: clinical isolate X003899, 168 h
[11] = test system: Mycobacterium tuberculosis; test: Antimycobacterial activity against Mycobacterium tuberculosis clinical isolate X001354 under normoxic condition after 7 days by MABA assay; format: functional; settings: clinical isolate X001354, 168 h
[12] = test system: Mycobacterium tuberculosis; test: Antimycobacterial activity against Mycobacterium tuberculosis H37Rv under normoxic condition after 7 days by MABA assay; format: functional; settings: for MIC90: Mycobacterium tuberculosis, H37Rv, 168 h
[13] = test system: Acinetobacter baumannii; test: Antibacterial activity against Acinetobacter baumannii ATCC BAA-747 after 16 hrs; format: functional; settings: for MIC90: ATCC BAA-747, 16 h
[14] = test system: Candida albicans; test: Antifungal activity against Candida albicans ATCC 10231 after 48 hrs; format: functional; settings: ATCC 10231, 48 h
[15] = test system: Pseudomonas aeruginosa; test: Antibacterial activity against Pseudomonas aeruginosa ATCC 27853 after 16 hrs; format: functional; settings: for MIC90: ATCC 27853, 16 h
[16] = test system: Vero; test: Cytotoxicity against african green monkey Vero cells; format: cell-based; settings: Chlorocebus sabaeus
[17] = test system: Staphylococcus aureus; test: Antibacterial activity against Staphylococcus aureus ATCC 29213 after 16 hrs; format: functional
[18] = test system: Escherichia coli; test: Antibacterial activity against Escherichia coli ATCC 25922 after 16 hrs; format: functional

Molecule | MIC90 [1] [µg/mL] | MIC90 [2] [µg/mL] | MIC90 [3] [µg/mL] | MIC90 [4] [µg/mL] | MIC90 [6] [µg/mL] | MIC90 [7] [µg/mL] | MIC90 [8] [µg/mL] | MIC90 [9] [µg/mL] | MIC90 [10] [µg/mL] | MIC90 [11] [µg/mL] | MIC90 [12] [µg/mL] | further results
CC[C@H]1OC(=O)[C@H](C)[C@@H](O[C@H]2C[C@@](C)(OC)[C@@H](O)[C@H](C)O2)[C@H](C)[C@@H](O[C@@H]2O[C@H](C)C[C@H](N(C)C)[C@H]2O)[C@](C)(O)C[C@@H](C)C(=O)[C@H](C)[C@@H](O)[C@]1(C)O [ERYTHROMYCIN] | 0.1 (≈ 0.136 µM) | 1.9 (≈ 2.59 µM) | – | – | – | – | – | – | – | – | – | –
NNC(=O)c1ccncc1 [ISONIAZID] | – | – | 0.04 | 0.1 | 0.9 (≈ 6.56 µM) | 0.1 (≈ 0.729 µM) | 0.1 (≈ 0.729 µM) | > 1.1 | 0.1 (≈ 0.729 µM) | 0.1 (≈ 0.729 µM) | 0.03 (≈ 0.219 µM) | MIC90 [5]: 12.7 µg/mL (≈ 92.6 µM)
NC[C@H]1O[C@H](O[C@H]2[C@H](O)[C@@H](O[C@H]3O[C@H](CO)[C@@H](O)[C@H](N)[C@H]3O)[C@H](N)C[C@@H]2N)[C@H](O)[C@@H](O)[C@@H]1O [KANAMYCIN] | – | – | – | – | – | – | – | – | – | – | – | MIC90 [13]: 0.7 µg/mL (≈ 1.44 µM)
CC(=O)N1CCN(c2ccc(OCC3COC(Cn4ccnc4)(c4ccc(Cl)cc4Cl)O3)cc2)CC1 (stereo not drawn) [KETOCONAZOLE] | – | – | – | – | – | – | – | – | – | – | – | MIC90 [14]: < 0.004 µg/mL
Cc1ncc([N+](=O)[O-])n1CCO [METRONIDAZOLE] | – | – | > 87.6 | > 87.6 | > 87.6 | > 87.6 | > 87.6 | > 87.6 | > 87.6 | > 87.6 | > 87.6 | –
CN(C)c1ccc(O)c2c1C[C@H]1C[C@H]3[C@H](N(C)C)C(O)=C(C(N)=O)C(=O)[C@@]3(O)C(O)=C1C2=O [MINOCYCLINE] | – | – | – | – | – | – | – | – | – | – | – | MIC90 [13]: 0.2 µg/mL (≈ 0.437 µM)
CC1COc2c(N3CCN(C)CC3)c(F)cc3c(=O)c(C(=O)O)cn1c23 (stereo not drawn) [OFLOXACIN] | 1.1 (≈ 3.04 µM) | 2.3 (≈ 6.36 µM) | – | – | – | – | – | – | – | – | – | MIC90 [15]: 1.2 µg/mL (≈ 3.32 µM)
CO[C@H]1/C=C/O[C@@]2(C)Oc3c(C)c(O)c4c(O)c(c(/C=N/N5CCN(C)CC5)c(O)c4c3C2=O)NC(=O)/C(C)=C\C=C\[C@H](C)[C@H](O)[C@@H](C)[C@@H](O)[C@@H](C)[C@H](OC(C)=O)[C@@H]1C [RIFAMPIN] | < 0.01 | 0.2 (≈ 0.243 µM) | < 0.02 | 0.02 | 0.1 (≈ 0.122 µM) | 0.03 (≈ 0.0365 µM) | 0.02 (≈ 0.0243 µM) | 0.1 (≈ 0.122 µM) | 0.1 (≈ 0.122 µM) | 0.02 (≈ 0.0243 µM) | < 0.02 | MIC90 [15]: 17.8 µg/mL (≈ 21.6 µM); MIC90 [5]: < 0.3 µg/mL; IC50 [16]: 143 µg/mL (≈ 174 µM); MBC90 [12]: 0.1 µg/mL (≈ 0.122 µM)
CN[C@@H]1[C@H](O[C@H]2[C@H](O[C@H]3[C@H](O)[C@@H](O)[C@H](N=C(N)N)[C@@H](O)[C@@H]3N=C(N)N)O[C@@H](C)[C@]2(O)C=O)O[C@@H](CO)[C@H](O)[C@H]1O [STREPTOMYCIN] | – | – | 0.6 | 0.8 | 1 (≈ 1.72 µM) | 0.6 (≈ 1.03 µM) | 0.3 (≈ 0.516 µM) | 0.3 (≈ 0.516 µM) | 0.2 (≈ 0.344 µM) | 0.4 (≈ 0.688 µM) | 0.3 (≈ 0.516 µM) | MIC90 [5]: 0.1 µg/mL (≈ 0.172 µM)
CN[C@H](CC(C)C)C(=O)N[C@H]1C(=O)N[C@@H](CC(N)=O)C(=O)N[C@H]2C(=O)N[C@H]3C(=O)N[C@H](C(=O)N[C@H](C(=O)O)c4cc(O)cc(O)c4-c4cc3ccc4O)[C@H](O)c3ccc(c(Cl)c3)Oc3cc2cc(c3O[C@@H]2O[C@H](CO)[C@@H](O)[C@H](O)[C@H]2O[C@H]2C[C@](C)(N)[C@H](O)[C@H](C)O2)Oc2ccc(cc2Cl)[C@H]1O [VANCOMYCIN] | 0.1 (≈ 0.069 µM) | 2.3 (≈ 1.59 µM) | – | – | – | – | – | – | – | – | – | –
GENTAMICIN | – | – | – | – | – | – | – | – | – | – | – | MIC>90 [15]: 0.5 µg/mL; MIC>90 [17]: 0.6 µg/mL; MIC>90 [18]: 1.2 µg/mL; MIC>90 [13]: 0.2 µg/mL
